# Source: PMC4155405 (Nature communications, 2014)
# Where two headings read alike, the source gives them in different places.
# Key:
# in vitro = settings: dog
# [1] = test system: recombinant Wuhan95 (H3N2) PB1-V43I virus; type: cell-based, influenza A virus A/Wuhan/359/95 (H3N2)
# [2] = test system: Wuhan95 (H3N2) PB1-V43I virus; type: cell-based, influenza A virus A/Wuhan/359/95 (H3N2)
# [3] = test system: recombinant virus Wuhan95 (H3N2); type: cell-based, influenza A virus A/Wuhan/359/95 (H3N2)
# [4] = test system: Wuhan95 (H3N2) wild-type virus; type: cell-based, influenza A virus A/Wuhan/359/95 (H3N2)
Compound,CC50 (in vitro),"fold increase in EC50, PB1-V43I mutant versus wild-type H3N2 virus [1]","EC50 ([1]; read-out: EC50 (favipiravir, virus titre in MDCK cells))",mutational frequency in the HA gene [2],genomic mutation frequency [3],fold higher virus titre of PB1-V43I virus compared to wild-type recombinant Wuhan95 virus [1],"EC50 ([1]; read-out: EC50 (ribavirin, virus titre in MDCK cells))",fold higher mutational frequency of wild-type virus than PB1-V43I virus [4],mutational frequency in the HA gene [4]
Nc1nc2c(ncn2[C@@H]2O[C@H](CO)[C@@H](O)[C@H]2O)c(=O)[nH]1 [guanosine],122 ± 0.11 µM,–,–,–,–,–,–,–,–
NC(=O)c1nc(F)c[nH]c1=O [favipiravir],–,2.24 fold,24.6 µM,–,–,–,–,–,–
"NC(=O)c1ncn([C@@H]2O[C@H](CO)[C@@H](O)[C@H]2O)n1 [ribavirin, 1-[(2R,3R,4S,5R)-3,4-dihydroxy-5-(hydroxymethyl)oxolan-2-yl]-1H-1,2,4-triazole-3-carboxamide]",352 ± 0.04 µM,–,–,4.08 mutations per 10^4 nucleotides,15.74 per 10^4 nucleotide sequenced,10.8 fold,73.5 µM,1.36 fold,5.53 mutations per 10^4 nucleotides
